Test systems include TK-10 renal; MALME-3M melanoma; OVCAR-8 ovarian; OVCAR-5 ovarian; SF-268 CNS; HT29 colon; MOLT-4 leukemia; MCF7 breast; MDA-MB-231 breast.
Experiment in all cases: inhibition of tumour cell growth, NCI panel, 48 h

These results are taken from PubChem BioAssay (NCI).

Molecules are shown by their SMILES.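 Method: 48-hour compound exposure of cells in 96-well plates, five concentrations, linear interpolation of endpoints. Here, GI50 denotes the concentration required for 50% inhibition of growth. TGI: total growth inhibition.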

Consider `Cc1cccc(C)c1NC(=O)C(=O)Cc1nc2ccccc2s1`, for which the TGI in the experiment with TK-10 renal, in the experiment on MALME-3M melanoma, with OVCAR-8 ovarian, in the experiment on OVCAR-5 ovarian, in the experiment with SF-268 CNS and in the experiment with HT29 colon was greater than 100 µM in each case.
`O=C(CC1=Nc2nnc(CCCCCCCc3nnc4n3C(=O)C(CC(=O)c3ccc5ccccc5c3)=N4)n2C1=O)c1ccc2ccccc2c1`: the TGI in the experiment on TK-10 renal, in the experiment on MOLT-4 leukemia, in the experiment with MALME-3M melanoma, with OVCAR-8 ovarian, in the experiment with OVCAR-5 ovarian and with SF-268 CNS was greater than 100 µM each time. In the experiment with HT29 colon, the TGI is greater than 100 µM.
For `Cc1cc(Cl)ccc1NC(=O)CCCC(=O)C1C/C(=N/O)CC/C1=N\O` (centres undefined), the TGI in the experiment with TK-10 renal, with MOLT-4 leukemia, in the experiment on MALME-3M melanoma, in the experiment with OVCAR-8 ovarian, in the experiment on OVCAR-5 ovarian and in the experiment on SF-268 CNS was greater than 100 µM throughout. In the experiment with HT29 colon, this compound came in with a TGI greater than 100 µM.
For `COC1(OC)C2(Cl)C3=CCCC=C3C1(Cl)C(Cl)=C2Cl`, the TGI was greater than 100 µM in the experiment with TK-10 renal; 76.9 µM in the experiment on MOLT-4 leukemia; 49.2 µM in the experiment with MALME-3M melanoma; greater than 100 µM with OVCAR-8 ovarian; 83.9 µM with OVCAR-5 ovarian; greater than 100 µM in the experiment with SF-268 CNS. For the same compound, in the experiment on HT29 colon, the TGI is 84.3 µM.
Turning to `COc1cc2c(/C=C3\C(=O)Nc4ccccc43)c[nH]c2cc1C`, the GI50 in the experiment on TK-10 renal is 1.31 µM; with MOLT-4 leukemia, 0.142 µM; with OVCAR-8 ovarian it was 0.0917 µM; with OVCAR-5 ovarian, 0.62 µM; in the experiment on MDA-MB-231 breast it was 0.289 µM; with SF-268 CNS it was 0.861 µM. In addition, the GI50 in the experiment on HT29 colon was 0.152 µM. The TGI with TK-10 renal was 9.95 µM; in the experiment with MOLT-4 leukemia it was 2.52 µM; with MCF7 breast it was greater than 82.1 µM; in the experiment with OVCAR-8 ovarian, 7.19 µM; in the experiment on OVCAR-5 ovarian it was 19.1 µM; in the experiment on MDA-MB-231 breast, 2.69 µM. Further, the TGI with SF-268 CNS and in the experiment on HT29 colon was greater than 100 µM each time.
As for `O=C1CC23CCCCCCCCCCC2(C1)CC(=O)C3` (centres undefined), the TGI with TK-10 renal was greater than 100 µM; with MOLT-4 leukemia, 56.2 µM; in the experiment with MALME-3M melanoma, 76.1 µM; in the experiment with OVCAR-8 ovarian, greater than 100 µM; with OVCAR-5 ovarian, 72.1 µM; in the experiment on SF-268 CNS, greater than 100 µM. The compound further showed a TGI in the experiment with HT29 colon of 37.2 µM.
Regarding `COc1ccc(-c2ccc(CC(=O)O)cc2)cc1OC`, the TGI in the experiment on TK-10 renal, in the experiment on MOLT-4 leukemia, with MALME-3M melanoma, in the experiment with OVCAR-8 ovarian, with OVCAR-5 ovarian and in the experiment on SF-268 CNS was greater than 100 µM each time. Further, the TGI in the experiment on HT29 colon is greater than 100 µM.
With `CC(=O)N1[C@H](C(=O)O)CS[C@H]1c1ccc(F)cc1`, the TGI with TK-10 renal, in the experiment with MOLT-4 leukemia, with MALME-3M melanoma, in the experiment on OVCAR-8 ovarian, in the experiment on OVCAR-5 ovarian and with SF-268 CNS was greater than 100 µM in each case. The compound further returned a TGI in the experiment on HT29 colon greater than 100 µM.
`COC(=O)C1CC(c2ccc(OC)c(OC)c2)OC1=O` (mixture of isomers): the TGI with TK-10 renal, in the experiment with MOLT-4 leukemia, with MALME-3M melanoma, in the experiment with OVCAR-8 ovarian, with OVCAR-5 ovarian and with SF-268 CNS was greater than 100 µM throughout. In the experiment with HT29 colon, this compound displayed a TGI greater than 100 µM.
Regarding `C1=CC(=P(c2ccccc2)(c2ccccc2)c2ccccc2)C=C1`, the TGI in the experiment on TK-10 renal was 50.9 µM; with MOLT-4 leukemia it was 23.4 µM; in the experiment on MALME-3M melanoma, 17.4 µM; in the experiment on OVCAR-8 ovarian, 69.2 µM; in the experiment on OVCAR-5 ovarian, 28.6 µM; in the experiment with SF-268 CNS, 75.1 µM. Besides, in the experiment on HT29 colon, the TGI was 23.7 µM.
Consider `COC(=O)C1C=CCC2CCCCC21N1CCCC1` (centres undefined), for which the TGI in the experiment on TK-10 renal, in the experiment with MOLT-4 leukemia, with MALME-3M melanoma, in the experiment with OVCAR-8 ovarian, in the experiment on OVCAR-5 ovarian and with SF-268 CNS was greater than 100 µM each time. This compound returned a TGI with HT29 colon greater than 100 µM.
For `Cc1nnc2n1N=C(c1ccccc1)C(c1ccccc1)S2` (centres undefined), the TGI with TK-10 renal, in the experiment with MOLT-4 leukemia, in the experiment with MALME-3M melanoma, in the experiment with OVCAR-8 ovarian, with OVCAR-5 ovarian and with SF-268 CNS was greater than 100 µM throughout. Also, in the experiment on HT29 colon, the TGI is greater than 100 µM.
For `CCC[CH2][Sn-]([CH2]CCC)([CH2]CCC)[O]C(=O)C(C)C`, the GI50 in the experiment on TK-10 renal is 0.141 µM; in the experiment with MOLT-4 leukemia, 0.102 µM; with MALME-3M melanoma, 0.0229 µM; in the experiment on OVCAR-8 ovarian it was 0.129 µM; in the experiment with OVCAR-5 ovarian, 0.107 µM; in the experiment with MDA-MB-231 breast, 0.103 µM. Also, the figures for the GI50 in the experiment with SF-268 CNS and in the experiment with HT29 colon were 0.144 µM and 0.0573 µM, respectively. Besides, the TGI with TK-10 renal is 0.272 µM; in the experiment with MOLT-4 leukemia it was 0.348 µM; in the experiment with MALME-3M melanoma, 0.204 µM; in the experiment on OVCAR-8 ovarian, 0.255 µM; with OVCAR-5 ovarian, 0.262 µM; with MDA-MB-231 breast it was 0.227 µM. Further, the TGI was found to be 0.333 µM in the experiment on SF-268 CNS and 0.208 µM in the experiment on HT29 colon.
For the compound `COc1ccc2[nH]c(C(=O)N3CCN(C(=O)OCc4ccc5c(Cl)cc(Cl)c(O)c5n4)CC3)cc2c1`, the GI50 with TK-10 renal was 1.42 µM; in the experiment on MOLT-4 leukemia, 0.356 µM; in the experiment with MALME-3M melanoma, 1.59 µM; with OVCAR-8 ovarian, 1.01 µM; in the experiment with OVCAR-5 ovarian it was 1.61 µM; in the experiment with MDA-MB-231 breast it was 1.34 µM. For the same compound, the GI50 in the experiment on SF-268 CNS is 1.49 µM; in the experiment with HT29 colon it was 1.08 µM. The TGI is 2.72 µM with TK-10 renal; 1.79 µM with MOLT-4 leukemia; 3.02 µM with MALME-3M melanoma; 2.42 µM in the experiment on OVCAR-8 ovarian; 3.08 µM in the experiment on OVCAR-5 ovarian; 2.87 µM in the experiment with MDA-MB-231 breast. Besides, the TGI in the experiment on SF-268 CNS was 3.02 µM; in the experiment on HT29 colon it was 2.48 µM.
With `COc1cc(C)c2c(c1)CN1CN2Cc2cc(OC)cc(C)c21`, the TGI with MOLT-4 leukemia, with MALME-3M melanoma, in the experiment with OVCAR-8 ovarian, in the experiment with OVCAR-5 ovarian, in the experiment with SF-268 CNS and in the experiment on HT29 colon was greater than 100 µM each time.
